Data taken from patent US5550128A, “Enantiomers of gamma methylene 10-deaza aminopterin and process for preparing the same” (priority 1994, dated 1996).

Legend:
[1] = biological target: T1, Recombinant Human Dihydrofolate Reductase (Homo sapiens, UniProt P00374); experiment: Inhibition of recombinant human dihydrofolate reductase, spectrophotometric enzyme assay; assay type: biochemical
T1 sequence (P00374 1-187): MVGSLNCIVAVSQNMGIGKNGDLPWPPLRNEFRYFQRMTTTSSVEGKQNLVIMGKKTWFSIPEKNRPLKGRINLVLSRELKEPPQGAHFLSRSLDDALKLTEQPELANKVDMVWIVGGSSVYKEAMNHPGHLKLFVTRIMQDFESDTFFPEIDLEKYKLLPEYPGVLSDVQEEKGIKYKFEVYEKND
Experimental: Enzyme assay was performed spectrophotometrically in a solution containin
50 μM dihydrofolate, 80 μM NADPH, 0.05 M Tris HCl. 0.01 M
2mercaptoethanol and 0.001 M EDTA at pH 7.4 at 30°. The reaction
Pure human recombinant enzyme was used.

[2] = test system: transport of radiolabeled folinic acid to H35 hepatoma cells; experiment: Inhibition of transport of radiolabeled folinic acid to H35 hepatoma cells; assay type: cell-based
Experimental: (§1) Independent, further evidences to the identity of L-MDAM as the biologically active enantiomer of the racemic mixture of D,L-MDAM (previously described as MDAM; Ref, U.S. Pat. No. 4,996,207) was obtained by the following data. […] The cytotoxicity of L-MDAM versus D,L-MDAM was also compared. […] The l50 value for growth inhibition (Gl50) was 39 nM for D,L-MDAM. […] Taken together, these unexpected and novel results establish that the biologically active compound present in the racemic mixture of MDAM is the L-enantiomer described in claim number 1.

H35 hepatoma cells = experiment: Growth inhibition of H35 hepatoma cells in culture; assay type: cell-based
Experimental: as §1

786-O (renal cancer) = experiment: Human Disease Oriented in vitro Antitumor Screen; assay type: cell-based; details: 786-0, 786-O (Table 5), read-out: Gl50 (the source's name)
Experimental: (§2) Further, by analogy to methotrexate (rheumatrex) L-MDAM should be useful in the treatment of autoimmune diseases such as rheumatoid arthritis and inflammatory diseases such as asthma.
(§3) A 48 h continuous drug exposure protocol was used combined with an SR13
(§4) protein assay to estimate cell growth or viability.

ACHN (renal cancer) = experiment: Human Disease Oriented in vitro Antitumor Screen; assay type: cell-based; details: ACHN (Table 5), read-out: Gl50 (the source's name)
Experimental: as §2, §3, §4

CCRF-CEM (leukemia) = experiment: Human Disease Oriented in vitro Antitumor Screen; assay type: cell-based; details: CCRF-CEM (Table 5), read-out: Gl50 (the source's name)
Experimental: as §2, §3, §4

HCT-116 (colon cancer) = experiment: Human Disease Oriented in vitro Antitumor Screen; assay type: cell-based; details: HCT-116 (Table 5), read-out: Gl50 (the source's name)
Experimental: as §2, §3, §4

HL-60 (TB) (leukemia) = experiment: Human Disease Oriented in vitro Antitumor Screen; assay type: cell-based; details: HL-60 TB (Table 5), read-out: Gl50 (the source's name)
Experimental: as §2, §3, §4

HT-29 (colon cancer) = experiment: Human Disease Oriented in vitro Antitumor Screen; assay type: cell-based; details: HT-29 (Table 5), read-out: Gl50 (the source's name)
Experimental: as §2, §3, §4

LOX IM VI (melanoma) = experiment: Human Disease Oriented in vitro Antitumor Screen; assay type: cell-based; details: LOX IMVI, LOX MI VI (Table 5), read-out: Gl50 (the source's name)
Experimental: as §2, §3, §4

MOLT-4 (leukemia) = experiment: Human Disease Oriented in vitro Antitumor Screen; assay type: cell-based; details: MOLT-4 (Table 5), read-out: Gl50 (the source's name)
Experimental: as §2, §3, §4

OVCAR-8 (ovarian cancer) = experiment: Human Disease Oriented in vitro Antitumor Screen; assay type: cell-based; details: OVCAR-8 (Table 5), read-out: Gl50 (the source's name)
Experimental: as §2, §3, §4

SF-268 = experiment: Human Disease Oriented in vitro Antitumor Screen; assay type: cell-based; details: SF-268 (Table 5), read-out: Gl50 (the source's name)
Experimental: as §2, §3, §4

SF-295 = experiment: Human Disease Oriented in vitro Antitumor Screen; assay type: cell-based; details: SF-295 (Table 5), read-out: Gl50 (the source's name)
Experimental: as §2, §3, §4

SF-539 = experiment: Human Disease Oriented in vitro Antitumor Screen; assay type: cell-based; details: SF-539 (Table 5), read-out: Gl50 (the source's name)
Experimental: as §2, §3, §4

SR (leukemia) = experiment: Human Disease Oriented in vitro Antitumor Screen; assay type: cell-based; details: SR (Table 5), read-out: Gl50 (the source's name)
Experimental: as §2, §3, §4

SW-620 (colon cancer) = experiment: Human Disease Oriented in vitro Antitumor Screen; assay type: cell-based; details: SW-620 (Table 5), read-out: Gl50 (the source's name)
Experimental: as §2, §3, §4

DU 145 (prostate cancer) = experiment: Human Disease Oriented in vitro Antitumor Screen; assay type: cell-based; details: DU 145 (Table 5), read-out: Gl50 (the source's name)
Text: (§5) It is also active against the adriamycin resistant MCF-7 human breast cancer cells (Gl50 -=74×10^-9).
(§6) Human Disease Oriented in vitro Antitumor Screen

HCT-15 (colon cancer) = experiment: Human Disease Oriented in vitro Antitumor Screen; assay type: cell-based; details: HCT-15 (Table 5), read-out: Gl50 (the source's name)
Text: as §5, §6

[3] = test system: HOP-62 (non-small cell lung cancer); experiment: Human Disease Oriented in vitro Antitumor Screen; assay type: cell-based; details: HOP-62 (Table 5), read-out: Gl50 (the source's name)
Text: as §5, §6

IGROVI (ovarian cancer) = experiment: Human Disease Oriented in vitro Antitumor Screen; assay type: cell-based; details: IGROVI (Table 5), read-out: Gl50 (the source's name)
Text: as §5, §6

M14 (melanoma) = experiment: Human Disease Oriented in vitro Antitumor Screen; assay type: cell-based; details: M14 (Table 5), read-out: Gl50 (the source's name)
Text: as §5, §6

MCF-7 (breast cancer) = experiment: Human Disease Oriented in vitro Antitumor Screen; assay type: cell-based; details: MCF7, MCF-7 (Table 5), read-out: Gl50 (the source's name)
Text: as §5, §6

[4] = test system: MDA-MB-231/ATCC (breast cancer); experiment: Human Disease Oriented in vitro Antitumor Screen; assay type: cell-based; details: MDA-MB-231/ATCC (Table 5), read-out: Gl50 (the source's name)
Text: as §5, §6

MDA-N (breast cancer) = experiment: Human Disease Oriented in vitro Antitumor Screen; assay type: cell-based; details: MDA-N (Table 5), read-out: Gl50 (the source's name)
Text: as §5, §6

[5] = test system: NCI-H460 (non-small cell lung cancer); experiment: Human Disease Oriented in vitro Antitumor Screen; assay type: cell-based; details: NCI-H460 (Table 5), read-out: Gl50 (the source's name)
Text: as §5, §6

OVCAR-5 (ovarian cancer) = experiment: Human Disease Oriented in vitro Antitumor Screen; assay type: cell-based; details: OVCAR-5 (Table 5), read-out: Gl50 (the source's name)
Text: as §5, §6

RPMI-8226 (leukemia) = experiment: Human Disease Oriented in vitro Antitumor Screen; assay type: cell-based; details: RPMI-8226 (Table 5), read-out: Gl50 (the source's name)
Text: as §5, §6

SN-12C (renal cancer) = experiment: Human Disease Oriented in vitro Antitumor Screen; assay type: cell-based; details: SN12C, SN-12C (Table 5), read-out: Gl50 (the source's name)
Text: as §5, §6

TK-10 (renal cancer) = experiment: Human Disease Oriented in vitro Antitumor Screen; assay type: cell-based; details: TK-10 (Table 5), read-out: Gl50 (the source's name)
Text: as §5, §6

U-251 (CNS cancer) = experiment: Human Disease Oriented in vitro Antitumor Screen; assay type: cell-based; details: U-251 (Table 5), read-out: Gl50 (the source's name)
Text: as §5, §6

ZIACC-62 (melanoma) = experiment: Human Disease Oriented in vitro Antitumor Screen; assay type: cell-based; details: ZIACC-62 (Table 5), read-out: Gl50 (the source's name)
Text: as §5, §6

[6] = test system: adriamycin resistant MCF-7 human breast cancer cells (MCF-7/ADR-RBS); experiment: Human Disease Oriented in vitro Antitumor Screen, adriamycin resistant cells; assay type: cell-based; details: MCF7, read-out: Gl50 (the source's name)
Text: as §5, §6

[7] = test system: human tumor cell lines in culture; experiment: Human Tumor Disease Oriented in vitro screen, panel as a whole; assay type: cell-based; details: relative to methotrexate, or enantiomer comparison
Experimental: as §2, §3, §4

SMILES: C=C(C[C@H](NC(=O)c1ccc(CCc2cnc3nc(N)nc(N)c3n2)cc1)C(=O)O)C(=O)O [L-MDAM, 4-amino-4-deoxy-10-deazapteroyl-γ-methylene-L-glutamic acid]
- IC50 ([1]; 50 μM dihydrofolate, 80 μM NADPH, pH 7.4, 30°): 22 nM
- IC50 Compound/IC50 MTX ([1]; ratio to MTX): 1.29
- DHFR inhibitory activity (comparison in words) ([1]; relative to MTX or D,L-MDAM): exactly twice as active as D,L-MDAM
- IC50 ([2]; H35 hepatoma cells, read-out: l50 value, inhibition of transport of radiolabeled folinic acid): 2300 nM
- reduction in l50 value (transport) versus D,L-MDAM ([2]; L-MDAM versus D,L-MDAM): approximately one-half
- cytotoxicity versus D,L-MDAM (H35 hepatoma cells; H35 hepatoma cells): Dramatic and unexpected potentiation of activity
- IC50 (H35 hepatoma cells; H35 hepatoma cells in culture, identical conditions, read-out: l50 value for growth inhibition (Gl50)): 8 nM
- IC50 (786-O (renal cancer)): < 10 nM
- IC50 (ACHN (renal cancer)): < 10 nM
- IC50 (CCRF-CEM (leukemia)): < 10 nM
- IC50 (HCT-116 (colon cancer)): < 10 nM
- IC50 (HL-60 (TB) (leukemia)): < 10 nM
- IC50 (HT-29 (colon cancer)): < 10 nM
- IC50 (LOX IM VI (melanoma)): < 10 nM
- IC50 (MOLT-4 (leukemia)): < 10 nM
- IC50 (OVCAR-8 (ovarian cancer)): < 10 nM
- IC50 (SF-268): < 10 nM
- IC50 (SF-295): < 10 nM
- IC50 (SF-539): < 10 nM
- IC50 (SR (leukemia)): < 10 nM
- IC50 (SW-620 (colon cancer)): < 10 nM
- IC50 (DU 145 (prostate cancer)): < 10 nM
- IC50 (HCT-15 (colon cancer)): < 10 nM
- IC50 [3]: < 10 nM
- IC50 (IGROVI (ovarian cancer)): < 10 nM
- IC50 (M14 (melanoma)): < 10 nM
- IC50 (MCF-7 (breast cancer)): < 10 nM
- IC50 [4]: < 10 nM
- IC50 (MDA-N (breast cancer)): < 10 nM
- IC50 [5]: < 10 nM
- IC50 (OVCAR-5 (ovarian cancer)): < 10 nM
- IC50 (RPMI-8226 (leukemia)): < 10 nM
- IC50 (SN-12C (renal cancer)): < 10 nM
- IC50 (TK-10 (renal cancer)): < 10 nM
- IC50 (U-251 (CNS cancer)): < 10 nM
- IC50 (ZIACC-62 (melanoma)): < 10 nM
- IC50 [6]: 74 nM
- activity/potency in inhibiting growth of human tumor cell lines (in words) [7]: biologically active enantiomer of D,L-MDAM
